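How tested: cells in 96-well plates exposed to compound for 48 hours at five concentrations. TGI denotes the concentration required for complete inhibition of growth.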
Assays:
Test in all cases: growth of human tumour cells (NCI), 48 h
MOLT-4 leukemia = tested on: MOLT-4 leukemia
OVCAR-5 ovarian = tested on: OVCAR-5 ovarian
U251 CNS = tested on: U251 CNS
SK-MEL-5 melanoma = tested on: SK-MEL-5 melanoma
RXF 393 renal = tested on: RXF 393 renal
SN12C renal = tested on: SN12C renal
OVCAR-8 ovarian = tested on: OVCAR-8 ovarian
RPMI-8226 leukemia = tested on: RPMI-8226 leukemia
MALME-3M melanoma = tested on: MALME-3M melanoma
NCI/ADR-RES ovarian = tested on: NCI/ADR-RES ovarian
NCI-H522 lung = tested on: NCI-H522 lung
OVCAR-3 ovarian = tested on: OVCAR-3 ovarian
CAKI-1 renal = tested on: CAKI-1 renal
MDA-N = tested on: MDA-N
HL-60(TB) leukemia = tested on: HL-60(TB) leukemia
KM12 colon = tested on: KM12 colon
NCI-H23 lung = tested on: NCI-H23 lung
HOP-62 NSCLC = tested on: HOP-62 NSCLC
A549 NSCLC = tested on: A549 NSCLC
UACC-257 melanoma = tested on: UACC-257 melanoma
SF-539 CNS = tested on: SF-539 CNS
SK-OV-3 ovarian = tested on: SK-OV-3 ovarian
HCT-116 colon = tested on: HCT-116 colon
MDA-MB-435 = tested on: MDA-MB-435
K-562 leukemia = tested on: K-562 leukemia
IGROV1 ovarian = tested on: IGROV1 ovarian
COLO 205 colon = tested on: COLO 205 colon
EKVX NSCLC = tested on: EKVX NSCLC
SK-MEL-2 melanoma = tested on: SK-MEL-2 melanoma
UO-31 renal = tested on: UO-31 renal
M14 melanoma = tested on: M14 melanoma
T-47D breast = tested on: T-47D breast
HS 578T breast = tested on: HS 578T breast
LOX IMVI melanoma = tested on: LOX IMVI melanoma
SR leukemia = tested on: SR leukemia
NCI-H226 lung = tested on: NCI-H226 lung
SK-MEL-28 melanoma = tested on: SK-MEL-28 melanoma
SNB-19 CNS = tested on: SNB-19 CNS
OVCAR-4 ovarian = tested on: OVCAR-4 ovarian
HCT-15 colon = tested on: HCT-15 colon
CCRF-CEM leukemia = tested on: CCRF-CEM leukemia
A498 renal = tested on: A498 renal
SF-295 CNS = tested on: SF-295 CNS
HOP-92 NSCLC = tested on: HOP-92 NSCLC
786-0 renal = tested on: 786-0 renal
PC-3 prostate = tested on: PC-3 prostate
SW-620 colon = tested on: SW-620 colon
DU-145 prostate = tested on: DU-145 prostate
MDA-MB-231 breast = tested on: MDA-MB-231 breast
UACC-62 melanoma = tested on: UACC-62 melanoma
ACHN renal = tested on: ACHN renal
BT-549 breast = tested on: BT-549 breast
NCI-H460 lung = tested on: NCI-H460 lung
TK-10 renal = tested on: TK-10 renal
SF-268 CNS = tested on: SF-268 CNS
HT29 colon = tested on: HT29 colon
SNB-75 CNS = tested on: SNB-75 CNS

For `CSc1nc(C#N)c(N)n1C`, the TGI (MOLT-4 leukemia) was > 100 µM, the TGI (OVCAR-5 ovarian) was > 100 µM and the TGI (U251 CNS) was > 100 µM. The TGI (SK-MEL-5 melanoma) was > 100 µM, the TGI (RXF 393 renal) was > 100 µM and the TGI (SN12C renal) was > 100 µM. For the same molecule, the TGI (OVCAR-8 ovarian) was > 100 µM, the TGI (RPMI-8226 leukemia) was > 100 µM and the TGI (MALME-3M melanoma) was > 100 µM. The TGI (NCI/ADR-RES ovarian) was > 100 µM, the TGI (NCI-H522 lung) was > 100 µM and the TGI (OVCAR-3 ovarian) was > 100 µM. For the same molecule, the TGI (CAKI-1 renal) was > 100 µM, the TGI (MDA-N) was > 100 µM and the TGI (HL-60(TB) leukemia) was > 100 µM. For the same molecule, the TGI (KM12 colon) was > 100 µM, the TGI (NCI-H23 lung) was > 100 µM and the TGI (HOP-62 NSCLC) was > 100 µM. The TGI (A549 NSCLC) was > 100 µM, the TGI (UACC-257 melanoma) was > 100 µM and the TGI (SF-539 CNS) was > 100 µM. The TGI (SK-OV-3 ovarian) was > 100 µM, the TGI (HCT-116 colon) was > 100 µM and the TGI (MDA-MB-435) was > 100 µM. The TGI (K-562 leukemia) was > 100 µM, the TGI (IGROV1 ovarian) was > 100 µM and the TGI (COLO 205 colon) was > 100 µM. The TGI (EKVX NSCLC) was > 100 µM, the TGI (SK-MEL-2 melanoma) was > 100 µM and the TGI (UO-31 renal) was > 100 µM. The TGI (M14 melanoma) was > 100 µM, the TGI (T-47D breast) was > 100 µM and the TGI (HS 578T breast) was > 100 µM. For the same molecule, the TGI (LOX IMVI melanoma) was > 100 µM, the TGI (SR leukemia) was > 100 µM and the TGI (NCI-H226 lung) was > 100 µM. For the same molecule, the TGI (SK-MEL-28 melanoma) was > 100 µM, the TGI (SNB-19 CNS) was > 100 µM and the TGI (OVCAR-4 ovarian) was > 100 µM. For the same molecule, the TGI (HCT-15 colon) was > 100 µM, the TGI (CCRF-CEM leukemia) was > 100 µM and the TGI (A498 renal) was > 100 µM. For the same molecule, the TGI (SF-295 CNS) was > 100 µM, the TGI (HOP-92 NSCLC) was > 100 µM and the TGI (786-0 renal) was > 100 µM. For the same molecule, the TGI (PC-3 prostate) was > 100 µM, the TGI (SW-620 colon) was > 100 µM and the TGI (DU-145 prostate) was > 100 µM. The TGI (MDA-MB-231 breast) was > 100 µM, the TGI (UACC-62 melanoma) was > 100 µM and the TGI (ACHN renal) was > 100 µM. For the same molecule, the TGI (BT-549 breast) was > 100 µM, the TGI (NCI-H460 lung) was > 100 µM and the TGI (TK-10 renal) was > 100 µM. The TGI (SF-268 CNS) was > 100 µM.
With `Clc1nc(Nc2nc3ccccc3[nH]2)nc(Cl)c1Cc1ccccc1` the TGI (MOLT-4 leukemia) was > 100 µM, the TGI (OVCAR-5 ovarian) was > 100 µM and the TGI (U251 CNS) was > 100 µM. The TGI (SK-MEL-5 melanoma) was > 100 µM, the TGI (RXF 393 renal) was > 100 µM and the TGI (SN12C renal) was > 100 µM. For the same molecule, the TGI (OVCAR-8 ovarian) was > 100 µM, the TGI (RPMI-8226 leukemia) was > 100 µM and the TGI (MALME-3M melanoma) was > 100 µM. For the same molecule, the TGI (NCI/ADR-RES ovarian) was > 100 µM, the TGI (NCI-H522 lung) was > 100 µM and the TGI (CAKI-1 renal) was > 100 µM. For the same molecule, the TGI (MDA-N) was > 100 µM, the TGI (HL-60(TB) leukemia) was > 100 µM and the TGI (KM12 colon) was > 100 µM. For the same molecule, the TGI (NCI-H23 lung) was > 100 µM, the TGI (A549 NSCLC) was > 100 µM and the TGI (UACC-257 melanoma) was > 100 µM. The TGI (SF-539 CNS) was > 100 µM, the TGI (SK-OV-3 ovarian) was > 100 µM and the TGI (HCT-116 colon) was > 100 µM. The TGI (MDA-MB-435) was > 100 µM, the TGI (HT29 colon) was > 100 µM and the TGI (K-562 leukemia) was > 100 µM. The TGI (IGROV1 ovarian) was > 100 µM, the TGI (COLO 205 colon) was > 100 µM and the TGI (EKVX NSCLC) was > 100 µM. For the same molecule, the TGI (SK-MEL-2 melanoma) was > 100 µM, the TGI (UO-31 renal) was > 100 µM and the TGI (M14 melanoma) was > 100 µM. For the same molecule, the TGI (T-47D breast) was > 100 µM, the TGI (HS 578T breast) was > 100 µM and the TGI (SR leukemia) was > 100 µM. The TGI (NCI-H226 lung) was > 100 µM, the TGI (SK-MEL-28 melanoma) was > 100 µM and the TGI (SNB-19 CNS) was > 100 µM. The TGI (OVCAR-4 ovarian) was > 100 µM, the TGI (HCT-15 colon) was > 100 µM and the TGI (SNB-75 CNS) was > 100 µM. The TGI (CCRF-CEM leukemia) was > 100 µM, the TGI (A498 renal) was > 100 µM and the TGI (SF-295 CNS) was > 100 µM. For the same molecule, the TGI (HOP-92 NSCLC) was 70.9 µM, the TGI (786-0 renal) was > 100 µM and the TGI (PC-3 prostate) was > 100 µM. The TGI (SW-620 colon) was > 100 µM, the TGI (DU-145 prostate) was > 100 µM and the TGI (MDA-MB-231 breast) was > 100 µM. For the same molecule, the TGI (UACC-62 melanoma) was > 100 µM, the TGI (ACHN renal) was > 100 µM and the TGI (BT-549 breast) was > 100 µM. For the same molecule, the TGI (NCI-H460 lung) was > 100 µM, the TGI (TK-10 renal) was > 100 µM and the TGI (SF-268 CNS) was > 100 µM.

Reference: PubChem BioAssay (NCI)
